Holding throughout (assay type): cell-based
For data set [1], the target named is hLPAR1 (human lysophosphatidic acid receptor 1) (Homo sapiens, UniProt Q92633). The data set can be described thus: FLIPR assay of intracellular calcium increase induced by activation of hLPAR1 expressed in CHO-K1 cells. The settings on record: CHO-K1 cells expressing hLPAR1, agonist oleoyl-L-α-lysophosphatidic acid 1 μM; read-out: LPAR1 IC50. The method, then:
The antagonist property of the compounds disclosed herein was determined using the FLIPR (fluorescence imaging plate reader) method, wherein the compounds are inhibitors for the intracellular calcium increase induced by activation of hLPAR1 (human lysophosphatidic acid receptor 1, accession No. NM_001401.4) expressed in CHO-K1 cells (Chinese hamster ovary cells K1, ATCC).
Cells at 250,000 cells/mL were seeded into a 96-well plate (25,000 cells/well) 18-24 h prior to the FLIPR experiment and then incubated overnight in a cell incubator. […] Each well was added with 75 μL of […] Fluo-4 AM fluorescent dye (Thermo, F14202) and then the cells were subjected to dye-loading incubation at 37° C. for 1.0 h. The 96-well plate was then washed once with buffer, added with a buffer containing a test compound or a vehicle at 50 μL per well and then incubated for 30 min at room temperature. […] An agonist (oleoyl-L-α-lysophosphatidic acid sodium salt (Sigma, L7260)) at a final concentration of 1 μM or a vehicle (ultrapure water) was then added at 50 μL/well, fluorescence values were measured for 2 min at 1-second intervals, and finally the output fluorescence counts were analyzed.

Data set [2] has as its system A2058 (human melanoma cells). The data set can be described thus: A2058 cell scratch (migration) assay with LPA. To be noted: 10 μM LPA, scratch area at 24 h. The method, then: The activity of the compounds disclosed herein at the cell level in vitro is evaluated by A2058 (human melanoma cells, Beina Bio, BNCC341099) cell scratch assay. The inhibitory activity of the compounds against LPAR1 can be reflected by inhibition of cell scratch healing.
After the cell confluence reached 80%, the cell culture plate was taken out and the original medium was discarded. Serum-free medium was then added, and the cells were starved overnight in an incubator (37° C., 5% CO2). The cell culture plate was then taken out, and cell scratches were made along the diameter of the wells using a 200 μL pipette tip. The cell culture plate was then added with 500 μL of serum-free medium and then shaken gently to wash away the residual cells on the scratched surface, and this was repeated twice. The medium was discarded and 500 μL of 1% FBS medium containing the compound was then added, and the mixture was incubated at 37° C. for 30 min. […] Olympus CKX53 was used to observe the scratches, and MShot image analysis system was used to take pictures and measure the scratch area at 0 h. The plate was incubated in the incubator under the conditions of 37° C. and 5% CO2. 24 h later, the scratches were observed again with Olympus CKX53, and MShot image analysis system was used to take pictures and measure the scratch area at 24 h. Cell migration inhibition rate was calculated according to the following formula: […]

Data set [3] can be described thus: In vitro cytotoxicity assay in HepG2 cells, CCK-8 method. The settings on record: human. The method, then:
In vitro cytotoxicity assay for the compounds disclosed herein was performed in HepG2 cells using the CCK-8 method. HepG2 cells (Beina Bio) in the logarithmic growth phase were collected, the concentration of cell suspension was adjusted, and then the cells were plated on a 96-well cell culture plate at 50,000 cells/well. The cells were then incubated overnight in a cell incubator (5% CO2, 37° C.), and after 80-90% cell confluence was achieved, test compounds or vehicle (DMSO) at various concentration gradients were added after medium change. The resulting mixture was incubated in the cell incubator (5% CO2, 37° C.) for 48 h. After the treatment, the medium in the plate was discarded. The plate was washed twice with PBS, added with CCK-8 working solution (Beyotime) at 100 μL per well, and then incubated at 37° C. for 1.5 h away from the light. Absorbance at OD450 nm was measured for each well on a microplate reader, and CC50 value of each compound was analyzed and calculated.

Sequence of hLPAR1 (human lysophosphatidic acid receptor 1) (Q92633 whole entry): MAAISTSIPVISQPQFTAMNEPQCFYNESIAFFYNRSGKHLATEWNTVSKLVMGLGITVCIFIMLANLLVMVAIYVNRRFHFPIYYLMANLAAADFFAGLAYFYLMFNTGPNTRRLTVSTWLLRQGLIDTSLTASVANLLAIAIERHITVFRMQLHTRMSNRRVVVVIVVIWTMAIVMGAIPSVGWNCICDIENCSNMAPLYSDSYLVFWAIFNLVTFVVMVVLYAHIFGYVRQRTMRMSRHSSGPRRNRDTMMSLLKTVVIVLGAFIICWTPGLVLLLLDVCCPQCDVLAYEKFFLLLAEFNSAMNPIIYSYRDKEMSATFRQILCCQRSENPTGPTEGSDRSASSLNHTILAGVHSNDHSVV

For `Cc1nc(-c2c(Cl)nn(C)c2COC(=O)N(C)C2CCCC2)ccc1O[C@H]1CCC[C@H](C(=O)O)C1` (racemic) [Compound 56, (+/−)-(1S,3S)-3-((6-(3-chloro-5-(((cyclopentyl(methyl)carbamoyl)oxy)methyl)-1-methyl-1H-pyrazol-4-yl)-2-methylpyridin-3-yl)oxy)cyclohexane-1-carboxylic Acid], the IC50 in data set [1] was less than 50 nM. For the same molecule, the “Cell migration inhibition rate (%)” value in data set [2] is “A (A: 50-70%)”. The molecule further returned a CC50 at 48 h in data set [3] greater than 200000 nM.
For `Cc1nnc(-c2ccc(O[C@H]3CCC[C@H](C(=O)O)C3)c(C)n2)cc1COC(=O)N(C)C1CCCC1` (racemic) [Compound 49] the same measures were less than 50 nM, “B (B: 30-50%)” and greater than 200000 nM.
Consider `Cc1nc(-c2cnnc(COC(=O)N(C)C3CCCC3)c2)ccc1O[C@H]1CCC[C@H](C(=O)O)C1` (racemic) [Compound 47], for which, in data set [1], the IC50 is less than 50 nM. Moreover, the “Cell migration inhibition rate (%)” value in data set [2] is recorded as “B (B: 30-50%)”. Moreover, the CC50 at 48 h in data set [3] was greater than 200000 nM.
For `Cc1snc(-c2ccc(O[C@H]3CCC[C@H](C(=O)O)C3)cc2)c1COC(=O)N(C)C1CCCC1` (racemic) [Compound 29, (+/−)-(1S,3S)-3-(4-(4-(((cyclopentyl(methyl)carbamoyl)oxy)methyl)-5-methylisothiazol-3-yl)phenoxy)cyclohexane-1-carboxylic Acid] the same measures were less than 50 nM, “B (B: 30-50%)” and greater than 200000 nM.
On to `Cc1nc(-c2c(C#N)nn(C)c2COC(=O)N(C)C2CCCC2)ccc1O[C@@H]1CCC[C@@H](C(=O)O)C1` (racemic) [Compound 58], for which the IC50 in data set [1] is less than 50 nM. The “Cell migration inhibition rate (%)” value in data set [2] is reported as “A (A: 50-70%)”. In addition, the CC50 at 48 h in data set [3] was greater than 200000 nM.
With `Cc1noc(-c2ccc(O[C@H]3CCC[C@H](C(=O)O)C3)cn2)c1COC(=O)N(C)C1CCCC1` (racemic) [Compound 35, (+/−)-(1S,3S)-3-((6-(4-(((cyclopentyl(methyl)carbamoyl)oxy)methyl)-3-methylisoxazol-5-yl)pyridin-3-yl)oxy)cyclohexane-1-carboxylic Acid], the “Cell migration inhibition rate (%)” value in data set [2] was “B (B: 30-50%)”. Besides, the CC50 at 48 h in data set [3] was greater than 200000 nM.
Take `CN(C(=O)OCc1c(-c2ccc(O[C@H]3CCC[C@H](C(=O)O)C3)c(F)n2)cnn1C)C1CC1` (racemic) [Compound 108, (+/−) (1S,3S)-3-((6-(5-(((cyclopropyl(methyl)carbamoyl)oxy)methyl)-1-methyl-1H-pyrazol-4-yl)-2-fluoropyridin-3-yl)oxy)cyclohexane-1-carboxylic Acid]: the IC50 in data set [1] lay within 300 to 10000 nM. The “Cell migration inhibition rate (%)” value in data set [2] was “B (B: 30-50%)”.
The corresponding values for `CN(C(=O)OCc1c(-c2cnc(O[C@H]3CCC[C@H](C(=O)O)C3)c(Cl)n2)cnn1C)C1CCCC1` [Compound 105] are less than 50 nM and “B (B: 30-50%)”.
For `Cc1nc(-c2cnn(C)c2COC(=O)N(C)CC2COC2)ccc1O[C@H]1CCC[C@H](C(=O)O)C1` (racemic) [Compound 97] the same measures were 300 to 10000 nM and “C (C: 0-30%)”.
For `CN(CC1CC1)C(=O)OCc1c(-c2ccc(O[C@H]3CCC[C@H](C(=O)O)C3)c(F)n2)cnn1C` (racemic) [Compound 110, (+/−)-(1S,3S)-3-((6-(5-((((cyclopropylmethyl)(methyl)carbamoyl)oxy)methyl)-1-methyl-1H-pyrazol-4-yl)-2-fluoropyridin-3-yl)oxy)cyclohexane-1-carboxylic Acid] the same measures were 50 to 300 nM and “B (B: 30-50%)”.
For `Cc1nc(-c2onc(C)c2COC(=O)N(C)C2CCCC2)ncc1O[C@H]1CCC[C@H](C(=O)O)C1` (racemic) [Compound 91, (+/−)-(1S,3S)-3-((2-(4-(((cyclopentyl(methyl)carbamoyl)oxy)methyl)-3-methylisoxazol-5-yl)-4-methylpyrimidin-5-yl)ox)cyclohexane-1-carboxylic Acid], the IC50 in data set [1] was less than 50 nM. For the same molecule, in data set [2], the “Cell migration inhibition rate (%)” value is recorded as “C (C: 0-30%)”.
Take `Cc1nc(-c2cnn(C)c2COC(=O)N(C)C2COC2)ccc1O[C@H]1CCC[C@H](C(=O)O)C1` (racemic) [Compound 64, (+/−)-(1S,3S)-3-((2-methyl-6-(1-methyl-5-(((methyl(oxetan-3-yl)carbamoyl)oxy)methyl)-1H-pyrazol-4-yl)pyridin-3-yl)oxy)cyclohexane-1-carboxylic Acid]: the IC50 in data set [1] lay within 300 to 10000 nM. Besides, the “Cell migration inhibition rate (%)” value in data set [2] is on record as “C (C: 0-30%)”.
Consider `Cc1noc(-c2ccc(O[C@H]3CCC[C@H](C(=O)O)C3)cn2)c1COC(=O)N(C)C1CC1` (racemic) [Compound 106], for which the IC50 in data set [1] fell in the range of 300 to 10000 nM. Moreover, the “Cell migration inhibition rate (%)” value in data set [2] is given as “B (B: 30-50%)”.
The corresponding values for `Cc1nc(-c2cnn(C)c2COC(=O)N(C)CC2CCOC2)ccc1O[C@H]1CCC[C@H](C(=O)O)C1` (mixture of isomers) [Compound 98, (+/−)-(1S,3S)-3-((2-methyl-6-(1-methyl-5-(((methyl((tetrahydrofuran-3-yl)methyl)carbamoyl)oxy)methyl)-1H-pyrazol-4-yl)pyridin-3-yl)oxy)cyclohexane-1-carboxylic Acid] are 300 to 10000 nM and “C (C: 0-30%)”.
The corresponding values for `Cc1nc(-c2cnn(C)c2COC(=O)N2CC3CCC(C2)O3)ccc1O[C@H]1CCC[C@H](C(=O)O)C1` (racemic) [Compound 65, (+/−)-(1R,3R)-3-((6-(5-(((8-oxa-3-azabicyclo[3.2.1]octane-3-carbonyl)oxy)methyl)-1-methyl-1H-pyrazol-4-yl)-2-methylpyridin-3-yl)oxy)cyclohexane-1-carboxylic Acid] are 300 to 10000 nM and “C (C: 0-30%)”.
On to `Cc1nc(-c2cnn(C)c2COC(=O)N(C)C2CCOCC2)ccc1O[C@H]1CCC[C@H](C(=O)O)C1` [Compound 95, (1S,3S)-3-((2-methyl-6-(1-methyl-5-(((methyl(tetrahydro-2H-pyran-4-yl)carbamoyl)oxy)methyl)-1H-pyrazol-4-yl)pyridin-3-yl)oxy)cyclohexane-1-carboxylic Acid], for which, in data set [1], the IC50 was in the range of 300 to 10000 nM. Also, the “Cell migration inhibition rate (%)” value in data set [2] is “C (C: 0-30%)”.
The corresponding values for `CN(C(=O)OCc1c(-c2cnc(O[C@H]3CCC[C@H](C(=O)O)C3)c(N)n2)cnn1C)C1CCCC1` (racemic) [Compound 94, (+/−)-(1S,3S)-3-((3-amino-5-(5-(((cyclopentyl(methyl)carbamoyl)oxy)methyl)-1-methyl-1H-pyrazol-4-yl)pyrazin-2-yl)oxy)cyclohexane-1-carboxylic Acid] are 300 to 10000 nM and “C (C: 0-30%)”.
The corresponding values for `Cc1nc(-c2cnn(C)c2COC(=O)N(C)C2CCOC2)ccc1O[C@H]1CCC[C@H](C(=O)O)C1` (mixture of isomers) [Compound 93] are 300 to 10000 nM and “B (B: 30-50%)”.
For `CN(C(=O)OCc1c(-c2ccc(O[C@H]3CCC[C@H](C(=O)O)C3)c(F)n2)cnn1C)C1CCC1` (racemic) [Compound 109, (+/−)-(1S,3S)-3-((6-(5-(((cyclobutyl(methyl)carbamoyl)oxy)methyl)-1-methyl-1H-pyrazol-4-yl)-2-fluoropyridin-3-yl)oxy)cyclohexane-1-carboxylic Acid] the same measures were 50 to 300 nM and “A (A: 50-70%)”.
